This note sets out measurements from US9527869B2, “Indolizine derivatives as phoshoinositide 3-kinases inhibitors” (CHIESI FARMACEUTICI S.P.A., priority 2014, dated 2016).

Common to all, as to type: biochemical
The target of one assay is T1, PI3Kα (Homo sapiens, UniProt P42336).
T1 construct: purchased Millipore Ltd (Billerica, Mass.)
Description: In vitro determination of the PI3K enzyme inhibitory activity in the cell free assay (ADP-Glo Kinase Assay), PI3Kα. As to conditions: ATP 50 μM, read-out: PI3K alpha inhibition. The method, boiled down: (§1)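 IC50 values came from four-parameter logistic fitting of ADP-Glo luminescence after 60 min kinase reactions at room temperature. ATP (final) was set per isoform: α 50 μM, β 100 μM, γ 30 μM, δ 80 μM. Substrates were phosphatidylinositol and phosphatidylserine (50 μM in 2× Tris pH 7.5 buffer), with human recombinant enzymes.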

The target of another assay is T2, PI3Kβ (Homo sapiens, UniProt P42338).
T2 construct: purchased Millipore Ltd (Billerica, Mass.)
T2 sequence (P42338 whole entry): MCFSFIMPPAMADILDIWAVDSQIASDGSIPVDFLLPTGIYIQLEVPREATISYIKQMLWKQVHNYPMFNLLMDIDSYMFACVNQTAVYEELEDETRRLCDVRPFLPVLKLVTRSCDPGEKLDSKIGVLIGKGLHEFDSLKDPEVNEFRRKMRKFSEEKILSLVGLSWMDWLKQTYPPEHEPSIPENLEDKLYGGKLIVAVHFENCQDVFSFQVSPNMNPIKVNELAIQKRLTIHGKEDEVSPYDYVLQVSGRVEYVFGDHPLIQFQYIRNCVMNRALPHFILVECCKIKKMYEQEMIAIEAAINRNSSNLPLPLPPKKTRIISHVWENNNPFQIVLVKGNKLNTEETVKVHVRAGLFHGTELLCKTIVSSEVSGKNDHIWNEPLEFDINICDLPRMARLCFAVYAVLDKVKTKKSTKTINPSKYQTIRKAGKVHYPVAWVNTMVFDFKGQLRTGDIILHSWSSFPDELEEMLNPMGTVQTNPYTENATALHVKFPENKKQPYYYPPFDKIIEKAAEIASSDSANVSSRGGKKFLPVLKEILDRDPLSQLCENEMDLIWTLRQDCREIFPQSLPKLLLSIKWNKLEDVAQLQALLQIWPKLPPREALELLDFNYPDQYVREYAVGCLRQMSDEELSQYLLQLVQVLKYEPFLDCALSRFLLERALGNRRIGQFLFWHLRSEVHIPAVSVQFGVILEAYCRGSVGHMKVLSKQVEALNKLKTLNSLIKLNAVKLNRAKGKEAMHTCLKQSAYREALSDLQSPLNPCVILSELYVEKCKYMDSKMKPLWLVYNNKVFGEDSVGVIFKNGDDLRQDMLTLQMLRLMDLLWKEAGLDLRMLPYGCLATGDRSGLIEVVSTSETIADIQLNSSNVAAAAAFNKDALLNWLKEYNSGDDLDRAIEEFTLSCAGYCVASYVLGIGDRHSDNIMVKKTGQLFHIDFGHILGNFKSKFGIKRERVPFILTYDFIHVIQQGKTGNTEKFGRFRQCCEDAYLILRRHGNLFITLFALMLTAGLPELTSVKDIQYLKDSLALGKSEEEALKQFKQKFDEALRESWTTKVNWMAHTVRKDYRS
T2 sequence (P27986 whole entry partner): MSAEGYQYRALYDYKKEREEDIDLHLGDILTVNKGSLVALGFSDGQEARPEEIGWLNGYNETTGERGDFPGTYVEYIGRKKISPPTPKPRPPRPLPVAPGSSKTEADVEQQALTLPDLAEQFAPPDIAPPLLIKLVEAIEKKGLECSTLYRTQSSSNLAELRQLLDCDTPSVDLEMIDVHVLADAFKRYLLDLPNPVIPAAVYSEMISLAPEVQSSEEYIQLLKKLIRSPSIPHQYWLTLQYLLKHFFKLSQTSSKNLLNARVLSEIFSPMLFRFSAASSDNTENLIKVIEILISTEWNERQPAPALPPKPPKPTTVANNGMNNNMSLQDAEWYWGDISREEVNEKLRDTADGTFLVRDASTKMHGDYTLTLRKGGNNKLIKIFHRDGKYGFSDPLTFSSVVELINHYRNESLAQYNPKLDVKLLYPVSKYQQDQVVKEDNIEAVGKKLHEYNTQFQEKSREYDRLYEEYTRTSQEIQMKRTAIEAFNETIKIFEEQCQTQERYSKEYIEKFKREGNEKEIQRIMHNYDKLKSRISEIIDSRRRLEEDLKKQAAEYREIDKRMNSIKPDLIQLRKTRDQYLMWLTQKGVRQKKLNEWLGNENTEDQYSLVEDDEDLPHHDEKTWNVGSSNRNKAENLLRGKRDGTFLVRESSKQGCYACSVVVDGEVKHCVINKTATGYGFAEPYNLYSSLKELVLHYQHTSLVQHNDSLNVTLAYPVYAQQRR
Description: In vitro determination of the PI3K enzyme inhibitory activity in the cell free assay (ADP-Glo Kinase Assay), PI3Kβ. As to conditions: ATP 100 μM, read-out: PI3K beta inhibition. The procedure, abridged:
as §1
Background: ADP-Glo turns the ADP formed in a reaction into a luminescent signal.

For a further assay, the target named is T3, PI3Kγ (Homo sapiens, UniProt P48736).
T3 construct: purchased Millipore Ltd (Billerica, Mass.)
T3 sequence (P48736 whole entry): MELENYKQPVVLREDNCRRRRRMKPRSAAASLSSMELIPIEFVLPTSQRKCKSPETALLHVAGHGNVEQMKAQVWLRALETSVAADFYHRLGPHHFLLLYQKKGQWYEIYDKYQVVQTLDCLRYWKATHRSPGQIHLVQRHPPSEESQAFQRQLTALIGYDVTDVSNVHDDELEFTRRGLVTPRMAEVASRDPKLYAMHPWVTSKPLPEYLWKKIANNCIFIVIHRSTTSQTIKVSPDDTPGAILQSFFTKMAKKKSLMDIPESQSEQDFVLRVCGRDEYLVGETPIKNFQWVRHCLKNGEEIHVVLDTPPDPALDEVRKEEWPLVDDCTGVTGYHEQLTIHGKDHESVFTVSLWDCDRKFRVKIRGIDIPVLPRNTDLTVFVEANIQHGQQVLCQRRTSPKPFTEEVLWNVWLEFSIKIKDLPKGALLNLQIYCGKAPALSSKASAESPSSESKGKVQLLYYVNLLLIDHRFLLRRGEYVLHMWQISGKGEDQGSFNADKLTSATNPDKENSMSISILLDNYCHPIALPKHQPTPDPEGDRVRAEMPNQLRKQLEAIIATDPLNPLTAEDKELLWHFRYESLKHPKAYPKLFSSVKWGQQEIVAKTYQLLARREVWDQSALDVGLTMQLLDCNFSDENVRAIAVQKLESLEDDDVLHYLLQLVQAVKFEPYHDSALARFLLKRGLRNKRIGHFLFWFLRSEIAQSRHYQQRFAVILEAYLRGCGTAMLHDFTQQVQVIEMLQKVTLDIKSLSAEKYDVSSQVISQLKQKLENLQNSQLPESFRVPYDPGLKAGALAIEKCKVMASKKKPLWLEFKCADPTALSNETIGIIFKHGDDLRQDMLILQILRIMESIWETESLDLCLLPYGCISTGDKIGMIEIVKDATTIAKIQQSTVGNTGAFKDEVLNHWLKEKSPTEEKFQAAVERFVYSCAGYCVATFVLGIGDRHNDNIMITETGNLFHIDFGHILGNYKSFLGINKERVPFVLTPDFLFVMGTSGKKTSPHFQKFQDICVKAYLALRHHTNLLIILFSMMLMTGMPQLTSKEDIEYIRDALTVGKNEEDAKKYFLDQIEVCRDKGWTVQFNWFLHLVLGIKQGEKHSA
The assay is described as follows: In vitro determination of the PI3K enzyme inhibitory activity in the cell free assay (ADP-Glo Kinase Assay), PI3Kγ. As to conditions: ATP 30 μM, read-out: PI3K gamma inhibition. The procedure, abridged: as §1

For a further assay, the target named is T4, PI3Kδ (Homo sapiens, UniProt O00329).
T4 construct: purchased Millipore Ltd (Billerica, Mass.)
T4 sequence (O00329 whole entry): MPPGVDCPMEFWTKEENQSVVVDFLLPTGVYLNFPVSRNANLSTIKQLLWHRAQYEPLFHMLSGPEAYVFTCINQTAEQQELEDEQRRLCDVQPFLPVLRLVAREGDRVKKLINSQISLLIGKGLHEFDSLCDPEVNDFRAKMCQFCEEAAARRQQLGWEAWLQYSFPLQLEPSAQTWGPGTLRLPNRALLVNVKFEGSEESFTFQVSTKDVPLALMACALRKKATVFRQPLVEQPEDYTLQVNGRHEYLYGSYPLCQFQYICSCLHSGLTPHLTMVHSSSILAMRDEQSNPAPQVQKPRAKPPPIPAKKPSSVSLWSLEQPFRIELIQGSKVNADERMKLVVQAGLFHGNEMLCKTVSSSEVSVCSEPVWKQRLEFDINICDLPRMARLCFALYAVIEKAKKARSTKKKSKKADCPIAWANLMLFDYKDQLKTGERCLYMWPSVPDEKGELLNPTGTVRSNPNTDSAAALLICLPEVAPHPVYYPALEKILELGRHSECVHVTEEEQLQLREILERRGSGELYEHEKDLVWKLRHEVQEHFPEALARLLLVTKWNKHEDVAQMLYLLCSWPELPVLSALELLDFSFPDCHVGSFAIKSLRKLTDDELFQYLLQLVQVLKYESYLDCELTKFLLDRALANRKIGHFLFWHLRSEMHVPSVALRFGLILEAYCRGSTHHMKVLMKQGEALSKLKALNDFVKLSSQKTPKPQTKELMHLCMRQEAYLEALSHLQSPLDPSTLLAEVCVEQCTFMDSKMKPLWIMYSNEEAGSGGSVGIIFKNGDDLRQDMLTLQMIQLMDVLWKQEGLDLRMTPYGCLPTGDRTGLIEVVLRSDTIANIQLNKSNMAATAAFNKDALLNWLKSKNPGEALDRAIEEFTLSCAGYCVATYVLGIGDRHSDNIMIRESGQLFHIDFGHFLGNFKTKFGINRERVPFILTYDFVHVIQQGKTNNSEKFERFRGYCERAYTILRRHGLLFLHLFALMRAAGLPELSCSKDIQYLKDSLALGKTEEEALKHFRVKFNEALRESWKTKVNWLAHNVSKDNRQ
T4 sequence (P27986 whole entry partner): as the sequence (P27986 whole entry partner) above
The assay is described as follows: In vitro determination of the PI3K enzyme inhibitory activity in the cell free assay (ADP-Glo Kinase Assay), PI3Kδ. As to conditions: ATP 80 μM, read-out: PI3K delta inhibition. The procedure, abridged: as §1

Where a name gives a salt, the structure may show the parent alone.

T1 sequence (P42336 whole entry): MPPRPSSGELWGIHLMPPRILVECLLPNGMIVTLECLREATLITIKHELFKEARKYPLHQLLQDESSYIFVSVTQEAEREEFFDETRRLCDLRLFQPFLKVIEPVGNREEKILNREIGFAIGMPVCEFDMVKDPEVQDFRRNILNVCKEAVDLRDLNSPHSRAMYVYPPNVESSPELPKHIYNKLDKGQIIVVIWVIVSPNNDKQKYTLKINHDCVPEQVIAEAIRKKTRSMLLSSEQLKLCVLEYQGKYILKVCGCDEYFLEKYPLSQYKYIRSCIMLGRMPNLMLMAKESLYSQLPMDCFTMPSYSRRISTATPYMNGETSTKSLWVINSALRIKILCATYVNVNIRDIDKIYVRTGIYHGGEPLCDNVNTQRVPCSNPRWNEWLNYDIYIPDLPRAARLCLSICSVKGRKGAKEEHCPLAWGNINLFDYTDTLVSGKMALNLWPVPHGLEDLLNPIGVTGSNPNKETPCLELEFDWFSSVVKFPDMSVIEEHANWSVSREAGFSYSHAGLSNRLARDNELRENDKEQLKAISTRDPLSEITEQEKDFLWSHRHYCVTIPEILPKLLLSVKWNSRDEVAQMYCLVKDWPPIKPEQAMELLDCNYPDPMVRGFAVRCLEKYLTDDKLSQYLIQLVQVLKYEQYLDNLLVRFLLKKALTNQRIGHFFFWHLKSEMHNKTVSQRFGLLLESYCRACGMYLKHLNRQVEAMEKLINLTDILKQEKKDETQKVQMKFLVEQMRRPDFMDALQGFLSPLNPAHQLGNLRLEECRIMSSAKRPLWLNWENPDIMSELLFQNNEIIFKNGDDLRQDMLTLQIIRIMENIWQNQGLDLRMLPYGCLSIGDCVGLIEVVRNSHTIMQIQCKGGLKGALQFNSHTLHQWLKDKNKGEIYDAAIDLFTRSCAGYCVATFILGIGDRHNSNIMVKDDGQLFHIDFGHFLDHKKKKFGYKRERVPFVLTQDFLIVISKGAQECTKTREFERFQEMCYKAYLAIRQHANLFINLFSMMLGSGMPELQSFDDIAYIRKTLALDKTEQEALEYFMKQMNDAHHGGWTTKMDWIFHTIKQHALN
T1 sequence (P27986 whole entry partner): as the sequence (P27986 whole entry partner) above

Consider `Cc1ccccc1-c1c(CNc2ncnc(N)c2C#N)cn2ccccc12` [Example 29, 4-amino-6-({[1-(2-methylphenyl)indolizin-2-yl]methyl}amino)pyrimidine-5-carbonitrile], for which the IC50 is over 1000 nM on PI3Kα, over 1000 nM on PI3Kβ, over 1000 nM on PI3Kγ and 10 to 1000 nM at PI3Kδ.

On to `N#Cc1c(N)ncnc1NCc1cn2ccccc2c1-c1ccccn1` [Example 30, 4-amino-6-({[1-(pyridin-2-yl)indolizin-2-yl]methyl}amino)pyrimidine-5-carbonitrile], for which the IC50 on PI3Kα is over 1000 nM; at PI3Kβ, over 1000 nM; on PI3Kγ, over 1000 nM; at PI3Kδ it was 10 to 1000 nM.

For the compound `N#Cc1c(N)ncnc1NCc1cc2ccccn2c1` [Example 31, 4-amino-6-[(indolizin-2-ylmethyl)amino]pyrimidine-5-carbonitrile], the IC50 at PI3Kα is over 1000 nM; on PI3Kβ, over 1000 nM; on PI3Kγ, over 1000 nM; at PI3Kδ, 10 to 1000 nM.

For `CC(Nc1ncnc(N)c1C#N)c1cc2ccccn2c1-c1ccccc1` (centres unmarked) [Example 32, 4-amino-6-{[1-(3-phenylindolizin-2-yl)ethyl]amino}pyrimidine-5-carbonitrile], the IC50 at PI3Kα is over 1000 nM; at PI3Kβ, over 1000 nM; on PI3Kγ, over 1000 nM; at PI3Kδ, 10 to 1000 nM.

Turning to `CC(Nc1ncnc(N)c1C#N)c1cc2ccccn2c1-c1ccccn1` (centres unmarked) [Example 33, 4-amino-6-({1-[3-(pyridin-2-yl)indolizin-2-yl]ethyl}amino)pyrimidine-5-carbonitrile], the IC50 on PI3Kα is over 1000 nM; at PI3Kβ, 10 to 1000 nM; at PI3Kγ it was over 1000 nM; on PI3Kδ, 10 to 1000 nM.

As for `CC(Nc1ncnc(N)c1C#N)c1cc2ccccn2c1-c1cccnc1` (centres unmarked) [Example 34, 4-amino-6-({1-[3-(pyridin-3-yl)indolizin-2-yl]ethyl}amino)pyrimidine-5-carbonitrile], the IC50 at PI3Kα was over 1000 nM; on PI3Kβ it was 10 to 1000 nM; on PI3Kγ, 10 to 1000 nM; at PI3Kδ it was 10 to 1000 nM.

As to `CC(Nc1ncnc(N)c1C#N)c1cc2ccccn2c1-c1cnccn1` (centres unmarked) [Example 35, 4-amino-6-({1-[3-(pyrazin-2-yl)indolizin-2-yl]ethyl}amino)pyrimidine-5-carbonitrile], the IC50 at PI3Kα was over 1000 nM; at PI3Kβ it was 10 to 1000 nM; at PI3Kγ, over 1000 nM; at PI3Kδ, 10 to 1000 nM.

Take `CC(Nc1ncnc(N)c1C#N)c1cc2ccccn2c1-c1ccncc1` (centres unmarked) [Example 36, 4-amino-6-({1-[3-(pyridin-4-yl)indolizin-2-yl]ethyl}amino)pyrimidine-5-carbonitrile]: the IC50 at PI3Kα was over 1000 nM; at PI3Kβ, 10 to 1000 nM; on PI3Kγ, 10 to 1000 nM; on PI3Kδ, 10 to 1000 nM.

As for `CC(Nc1ncnc(N)c1C#N)c1cc2ccccn2c1-c1cccs1` (centres unmarked) [Example 37, 4-amino-6-({1-[3-(thiophen-2-yl)indolizin-2-yl]ethyl}amino)pyrimidine-5-carbonitrile], the IC50 on PI3Kα was over 1000 nM; on PI3Kβ, over 1000 nM; at PI3Kγ, over 1000 nM; on PI3Kδ, 10 to 1000 nM.

`CC(Nc1ncnc(N)c1C#N)c1cc2ccccn2c1-c1ccsc1` (centres unmarked) [Example 38, 4-amino-6-({1-[3-(thiophen-3-yl)indolizin-2-yl]ethyl}amino)pyrimidine-5-carbonitrile]: the IC50 is over 1000 nM at PI3Kα, over 1000 nM on PI3Kβ, over 1000 nM on PI3Kγ and 10 to 1000 nM on PI3Kδ.

Turning to `CC(Nc1ncnc(N)c1C#N)c1cc2c(F)cccn2c1-c1ccccn1` (centres unmarked) [Example 39, 4-amino-6-({1-[8-fluoro-3-(pyridin-2-yl)indolizin-2-yl]ethyl}amino)pyrimidine-5-carbonitrile], the IC50 on PI3Kα was over 1000 nM; at PI3Kβ, 10 to 1000 nM; at PI3Kγ it was over 1000 nM; at PI3Kδ it was under 10 nM.

As for `Cc1cccc2cc(C(C)Nc3ncnc(N)c3C#N)c(-c3ccccn3)n12` (centres unmarked) [Example 40, 4-amino-6-({1-[5-methyl-3-(pyridin-2-yl)indolizin-2-yl]ethyl}amino)pyrimidine-5-carbonitrile], the IC50 on PI3Kα is over 1000 nM; on PI3Kβ, over 1000 nM; at PI3Kγ, over 1000 nM; at PI3Kδ, under 10 nM.

Regarding `Cc1cccn2c(-c3ccccn3)c(C(C)Nc3ncnc(N)c3C#N)cc12` (centres unmarked) [Example 41, 4-amino-6-({1-[8-methyl-3-(pyridin-2-yl)indolizin-2-yl]ethyl}amino)pyrimidine-5-carbonitrile], the IC50 is over 1000 nM at PI3Kα, over 1000 nM on PI3Kβ, over 1000 nM at PI3Kγ and 10 to 1000 nM at PI3Kδ.

Consider `CC(Nc1ncnc(N)c1C#N)c1cc2ccccn2c1C1=CCOCC1` (centres unmarked) [Example 42, 4-amino-6-({1-[3-(3,6-dihydro-2H-pyran-4-yl)indolizin-2-yl]ethyl}amino)pyrimidine-5-carbonitrile], for which the IC50 on PI3Kα is over 1000 nM; on PI3Kβ it was 10 to 1000 nM; at PI3Kγ it was over 1000 nM; on PI3Kδ it was 10 to 1000 nM.

On to `CCCC#Cc1c(C(C)Nc2ncnc(N)c2C#N)cc2ccccn12` (centres unmarked) [Example 43, 4-amino-6-({1-[3-(pent-1-yn-1-yl)indolizin-2-yl]ethyl}amino)pyrimidine-5-carbonitrile], for which the IC50 at PI3Kα is over 1000 nM; at PI3Kβ it was 10 to 1000 nM; at PI3Kγ, over 1000 nM; on PI3Kδ it was 10 to 1000 nM.

On to `CCC(Nc1ncnc(N)c1C#N)c1cc2ccccn2c1-c1ccccn1` (centres unmarked) [Example 44, 4-amino-6-({1-[3-(pyridin-2-yl)indolizin-2-yl]propyl}amino)pyrimidine-5-carbonitrile], for which the IC50 on PI3Kα is over 1000 nM; on PI3Kβ, over 1000 nM; on PI3Kγ, 10 to 1000 nM; at PI3Kδ, 10 to 1000 nM.

As for `CC(Nc1ncnc(N)c1C#N)c1cc2ccccn2c1C1=CCNCC1` (centres unmarked) [Example 45, 4-amino-6-({1-[3-(1,2,3,6-tetrahydropyridin-4-yl)indolizin-2-yl]ethyl}amino)pyrimidine-5-carbonitrile], the IC50 at PI3Kα was over 1000 nM; at PI3Kβ, 10 to 1000 nM; at PI3Kγ, over 1000 nM; on PI3Kδ, 10 to 1000 nM.

Consider `CC(Nc1ncnc(N)c1C#N)c1cc2ccccn2c1C#CCO` (centres unmarked) [Example 46, 4-amino-6-({1-[3-(3-hydroxyprop-1-yn-1-yl)indolizin-2-yl]ethyl}amino)pyrimidine-5-carbonitrile], for which the IC50 was over 1000 nM at PI3Kα, 10 to 1000 nM at PI3Kβ, 10 to 1000 nM on PI3Kγ and 10 to 1000 nM on PI3Kδ.

`CC(Nc1ncnc(N)c1C=O)c1cc2ccccn2c1-c1ccccn1` (centres unmarked) [Example 47, 4-amino-6-({1-[3-(pyridin-2-yl)indolizin-2-yl]ethyl}amino)pyrimidine-5-carbaldehyde]: the IC50 is over 1000 nM at PI3Kα, 10 to 1000 nM on PI3Kβ, over 1000 nM on PI3Kγ and 10 to 1000 nM on PI3Kδ.

Consider `CC(Nc1ncnc(N)c1Br)c1cc2ccccn2c1-c1ccccn1` (centres unmarked) [Example 48, 5-bromo-4-N-{1-[3-(pyridin-2-yl)indolizin-2-yl]ethyl}pyrimidine-4,6-diamine], for which the IC50 was over 1000 nM on PI3Kα, over 1000 nM on PI3Kβ, over 1000 nM at PI3Kγ and 10 to 1000 nM at PI3Kδ.

In the case of `CC(Nc1ncnc(N)c1C(F)(F)F)c1cc2ccccn2c1-c1ccccn1` (centres unmarked) [Example 49, 4-N-{1-[3-(pyridin-2-yl)indolizin-2-yl]ethyl}-5-(trifluoromethyl)pyrimidine-4,6-diamine], the IC50 on PI3Kα is over 1000 nM; on PI3Kβ, over 1000 nM; on PI3Kγ, over 1000 nM; at PI3Kδ, 10 to 1000 nM.

For `Cc1c(N)ncnc1NC(C)c1cc2ccccn2c1-c1ccccn1` (centres unmarked) [Example 50, 5-methyl-4-N-{1-[3-(pyridin-2-yl)indolizin-2-yl]ethyl}pyrimidine-4,6-diamine], the IC50 was over 1000 nM on PI3Kα, over 1000 nM at PI3Kβ, over 1000 nM on PI3Kγ and 10 to 1000 nM on PI3Kδ.

With `CNC(=O)c1c(N)ncnc1NC(C)c1cc2ccccn2c1-c1ccccn1` (centres unmarked) [Example 51, 4-amino-N-methyl-6-({1-[3-(pyridin-2-yl)indolizin-2-yl]ethyl}amino)pyrimidine-5-carboxamide], the IC50 is over 1000 nM on PI3Kα, over 1000 nM on PI3Kβ, over 1000 nM at PI3Kγ and 10 to 1000 nM on PI3Kδ.

As to `CC(Nc1ncnc(N)c1C(N)=O)c1cc2ccccn2c1-c1ccccn1` (centres unmarked) [Example 52, 4-amino-6-({1-[3-(pyridin-2-yl)indolizin-2-yl]ethyl}amino)pyrimidine-5-carboxamide], the IC50 is over 1000 nM at PI3Kα, over 1000 nM at PI3Kβ, over 1000 nM on PI3Kγ and 10 to 1000 nM at PI3Kδ.

On to `CC(Nc1ncnc(N)c1C(=O)O)c1cc2ccccn2c1-c1ccccn1` (centres unmarked) [Example 53, 4-amino-6-({1-[3-(pyridin-2-yl)indolizin-2-yl]ethyl}amino)pyrimidine-5-carboxylic acid formate], for which the IC50 at PI3Kα, on PI3Kβ, on PI3Kγ and on PI3Kδ was over 1000 nM throughout.

For the compound `CC(NC(=O)c1nccnc1N)c1cc2ccccn2c1-c1ccccn1` (centres unmarked) [Example 54, 3-amino-N-{1-[3-(pyridin-2-yl)indolizin-2-yl]ethyl}pyrazine-2-carboxamide], the IC50 at PI3Kα, at PI3Kβ, on PI3Kγ and at PI3Kδ was over 1000 nM each time.
